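Five concentrations, 48 hours, 96-well plates. TGI denotes the concentration required for complete inhibition of growth.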
How the values were obtained:
Assay in all cases: inhibition of tumour cell growth, NCI panel, 48 h
786-0 renal = test system: 786-0 renal
A498 renal = test system: A498 renal
A549 NSCLC = test system: A549 NSCLC
ACHN renal = test system: ACHN renal
BT-549 breast = test system: BT-549 breast
CAKI-1 renal = test system: CAKI-1 renal
CCRF-CEM leukemia = test system: CCRF-CEM leukemia
COLO 205 colon = test system: COLO 205 colon
DU-145 prostate = test system: DU-145 prostate
EKVX NSCLC = test system: EKVX NSCLC
HCC-2998 colon = test system: HCC-2998 colon
HCT-116 colon = test system: HCT-116 colon
HCT-15 colon = test system: HCT-15 colon
HL-60(TB) leukemia = test system: HL-60(TB) leukemia
HOP-62 NSCLC = test system: HOP-62 NSCLC
HOP-92 NSCLC = test system: HOP-92 NSCLC
HS 578T breast = test system: HS 578T breast
HT29 colon = test system: HT29 colon
IGROV1 ovarian = test system: IGROV1 ovarian
K-562 leukemia = test system: K-562 leukemia
KM12 colon = test system: KM12 colon
LOX IMVI melanoma = test system: LOX IMVI melanoma
M14 melanoma = test system: M14 melanoma
MALME-3M melanoma = test system: MALME-3M melanoma
MCF7 breast = test system: MCF7 breast
MDA-MB-231 breast = test system: MDA-MB-231 breast
MDA-MB-435 = test system: MDA-MB-435
MDA-N = test system: MDA-N
MOLT-4 leukemia = test system: MOLT-4 leukemia
NCI-H226 lung = test system: NCI-H226 lung
NCI-H23 lung = test system: NCI-H23 lung
NCI-H460 lung = test system: NCI-H460 lung
NCI-H522 lung = test system: NCI-H522 lung
NCI/ADR-RES ovarian = test system: NCI/ADR-RES ovarian
OVCAR-3 ovarian = test system: OVCAR-3 ovarian
OVCAR-4 ovarian = test system: OVCAR-4 ovarian
OVCAR-5 ovarian = test system: OVCAR-5 ovarian
OVCAR-8 ovarian = test system: OVCAR-8 ovarian
PC-3 prostate = test system: PC-3 prostate
RPMI-8226 leukemia = test system: RPMI-8226 leukemia
RXF 393 renal = test system: RXF 393 renal
SF-268 CNS = test system: SF-268 CNS
SF-295 CNS = test system: SF-295 CNS
SF-539 CNS = test system: SF-539 CNS
SK-MEL-2 melanoma = test system: SK-MEL-2 melanoma
SK-MEL-28 melanoma = test system: SK-MEL-28 melanoma
SK-MEL-5 melanoma = test system: SK-MEL-5 melanoma
SK-OV-3 ovarian = test system: SK-OV-3 ovarian
SN12C renal = test system: SN12C renal
SNB-19 CNS = test system: SNB-19 CNS
SNB-75 CNS = test system: SNB-75 CNS
SW-620 colon = test system: SW-620 colon
T-47D breast = test system: T-47D breast
TK-10 renal = test system: TK-10 renal
U251 CNS = test system: U251 CNS
UACC-257 melanoma = test system: UACC-257 melanoma
UACC-62 melanoma = test system: UACC-62 melanoma
UO-31 renal = test system: UO-31 renal
SR leukemia = test system: SR leukemia

Measured: TGI

O=C(Nc1ccccc1)c1cc(S(=O)(=O)Nc2nc3ncccc3[nH]2)c(SSc2cc(Cl)c(C(=O)Nc3ccccc3)cc2S(=O)(=O)Nc2nc3ncccc3[nH]2)cc1Cl
> 100 µM: 786-0 renal | A498 renal | A549 NSCLC | ACHN renal | BT-549 breast | CAKI-1 renal | CCRF-CEM leukemia | COLO 205 colon | DU-145 prostate | EKVX NSCLC | HCC-2998 colon | HCT-116 colon | HCT-15 colon | HL-60(TB) leukemia | HOP-62 NSCLC | HOP-92 NSCLC | HS 578T breast | HT29 colon | IGROV1 ovarian | K-562 leukemia | KM12 colon | LOX IMVI melanoma | M14 melanoma | MALME-3M melanoma | MCF7 breast | MDA-MB-231 breast | MDA-MB-435 | MDA-N | MOLT-4 leukemia | NCI-H226 lung | NCI-H23 lung | NCI-H460 lung | NCI-H522 lung | NCI/ADR-RES ovarian | OVCAR-3 ovarian | OVCAR-4 ovarian | OVCAR-5 ovarian | OVCAR-8 ovarian | PC-3 prostate | RPMI-8226 leukemia | RXF 393 renal | SF-268 CNS | SF-295 CNS | SF-539 CNS | SK-MEL-2 melanoma | SK-MEL-28 melanoma | SK-MEL-5 melanoma | SK-OV-3 ovarian | SN12C renal | SNB-19 CNS | SNB-75 CNS | SW-620 colon | T-47D breast | TK-10 renal | U251 CNS | UACC-257 melanoma | UACC-62 melanoma | UO-31 renal

O=C(Nc1ccccc1Cl)c1cc(S(=O)(=O)Nc2n[nH]c(=O)n2-c2ccccc2)c(S)cc1Cl
> 100 µM: 786-0 renal | A498 renal | BT-549 breast | CAKI-1 renal | CCRF-CEM leukemia | COLO 205 colon | DU-145 prostate | EKVX NSCLC | HCC-2998 colon | HCT-15 colon | HL-60(TB) leukemia | HOP-62 NSCLC | HOP-92 NSCLC | HS 578T breast | HT29 colon | IGROV1 ovarian | KM12 colon | LOX IMVI melanoma | M14 melanoma | MALME-3M melanoma | MCF7 breast | MDA-MB-231 breast | MDA-MB-435 | MDA-N | MOLT-4 leukemia | NCI-H226 lung | NCI-H23 lung | NCI-H460 lung | NCI/ADR-RES ovarian | OVCAR-3 ovarian | OVCAR-4 ovarian | OVCAR-5 ovarian | OVCAR-8 ovarian | RPMI-8226 leukemia | RXF 393 renal | SF-268 CNS | SF-295 CNS | SF-539 CNS | SK-MEL-2 melanoma | SK-MEL-28 melanoma | SK-MEL-5 melanoma | SK-OV-3 ovarian | SN12C renal | SNB-19 CNS | SR leukemia | SW-620 colon | T-47D breast | U251 CNS | UACC-257 melanoma | UACC-62 melanoma | UO-31 renal

O=C(/C=C(\N=P(c1ccccc1)(c1ccccc1)c1ccccc1)C(F)(F)C(F)(F)C(F)(F)C(F)(F)C(F)(F)C(F)(F)C(F)(F)F)c1ccccc1
> 100 µM: 786-0 renal | A549 NSCLC | ACHN renal | BT-549 breast | CAKI-1 renal | CCRF-CEM leukemia | COLO 205 colon | DU-145 prostate | HCC-2998 colon | HCT-116 colon | HCT-15 colon | HL-60(TB) leukemia | HOP-62 NSCLC | HOP-92 NSCLC | HS 578T breast | HT29 colon | IGROV1 ovarian | K-562 leukemia | KM12 colon | LOX IMVI melanoma | M14 melanoma | MALME-3M melanoma | MCF7 breast | MDA-MB-435 | MDA-N | MOLT-4 leukemia | NCI-H23 lung | NCI-H460 lung | NCI/ADR-RES ovarian | OVCAR-3 ovarian | OVCAR-4 ovarian | OVCAR-5 ovarian | PC-3 prostate | RPMI-8226 leukemia | RXF 393 renal | SF-268 CNS | SF-295 CNS | SF-539 CNS | SK-MEL-2 melanoma | SK-MEL-28 melanoma | SK-MEL-5 melanoma | SK-OV-3 ovarian | SN12C renal | SNB-19 CNS | SNB-75 CNS | SR leukemia | SW-620 colon | T-47D breast | TK-10 renal | U251 CNS | UACC-257 melanoma | UACC-62 melanoma | UO-31 renal
